Measurements from the NIST ThermoML archive (doi:10.1021/je700193w).

Assays:
[1] = 101.33 kPa, Liquid
[2] = xn = mol fraction of the nth substance listed; conditions: 101 kPa, Liquid
[3] = excess molar enthalpy (molar enthalpy of mixing); xn = mol fraction of the nth substance listed; conditions: 101 kPa, Liquid

CC(C)CO [2-methyl-1-propanol]
[1]
Conditions | mass density [kg/m3] | speed of sound [m/s]
283.15 K | 809.36 | 1238.7
298.15 K | 798.03 | 1188
303.15 K | 794.17 | 1174.3
313.15 K | 786.1 | 1138
323.15 K | 777.85 | 1108.2

CC(C)(C)O [2-methylpropan-2-ol]
[1]
Conditions | mass density [kg/m3] | speed of sound [m/s]
303.15 K | 775.75 | 1101.9
313.15 K | 765.05 | 1056.4
323.15 K | 754.12 | 1015.9

C=C1CCC2CC1C2(C)C (stereo not drawn) [β-pinene]
[1]
Conditions | mass density [kg/m3] | speed of sound [m/s]
283.15 K | 879.07 | 1354.7
298.15 K | 867.11 | 1295.1
303.15 K | 863.17 | 1278.6
313.15 K | 854.87 | 1236.3
323.15 K | 846.75 | 1200.7

C=C1CCC2CC1C2(C)C (stereo not drawn) [β-pinene] + CC(C)(C)O
Conditions | excess molar enthalpy [kcal/mol] | mass density [kg/m3] | speed of sound [m/s]
[2], 303.15 K, x1 = 0.0534 | – | 782.04 | 1110
[2], 303.15 K, x1 = 0.1048 | – | 787.79 | 1118.6
[2], 303.15 K, x1 = 0.2017 | – | 798.21 | 1135.6
[2], 303.15 K, x1 = 0.2814 | – | 806.31 | 1150.6
[2], 303.15 K, x1 = 0.4041 | – | 817.92 | 1173.7
[2], 303.15 K, x1 = 0.5042 | – | 826.75 | 1192.6
[2], 303.15 K, x1 = 0.6025 | – | 834.76 | 1210.5
[2], 303.15 K, x1 = 0.7042 | – | 842.46 | 1228.3
[2], 303.15 K, x1 = 0.8048 | – | 849.62 | 1244.8
[2], 303.15 K, x1 = 0.9007 | – | 856.11 | 1260.2
[2], 303.15 K, x1 = 0.9495 | – | 859.38 | 1268.7
[2], 313.15 K, x1 = 0.0561 | – | 771.94 | 1066.4
[2], 313.15 K, x1 = 0.108 | – | 777.84 | 1076
[2], 313.15 K, x1 = 0.2041 | – | 788.5 | 1094.3
[2], 313.15 K, x1 = 0.2996 | – | 798.32 | 1112.7
[2], 313.15 K, x1 = 0.4028 | – | 808.25 | 1132.3
[2], 313.15 K, x1 = 0.5039 | – | 817.37 | 1151
[2], 313.15 K, x1 = 0.5964 | – | 825.06 | 1167.1
[2], 313.15 K, x1 = 0.6957 | – | 832.77 | 1183.8
[2], 313.15 K, x1 = 0.7979 | – | 840.16 | 1201.1
[2], 313.15 K, x1 = 0.893 | – | 846.86 | 1216.7
[2], 313.15 K, x1 = 0.9475 | – | 850.67 | 1226.2
[2], 323.15 K, x1 = 0.0554 | – | 761.34 | 1027.2
[2], 323.15 K, x1 = 0.1025 | – | 766.94 | 1036.7
[2], 323.15 K, x1 = 0.2016 | – | – | 1056.6
[2], 323.15 K, x1 = 0.2032 | – | 778.49 | –
[2], 323.15 K, x1 = 0.3022 | – | 788.82 | 1076.4
[2], 323.15 K, x1 = 0.3988 | – | 798.4 | 1095.2
[2], 323.15 K, x1 = 0.5053 | – | 808.25 | 1115.2
[2], 323.15 K, x1 = 0.5996 | – | 816.33 | 1132.3
[2], 323.15 K, x1 = 0.7001 | – | 824.27 | 1149.5
[2], 323.15 K, x1 = 0.7941 | – | 831.23 | –
[2], 323.15 K, x1 = 0.799 | – | – | 1165.8
[2], 323.15 K, x1 = 0.8861 | – | – | 1180.1
[2], 323.15 K, x1 = 0.8905 | – | 838.16 | –
[2], 323.15 K, x1 = 0.9367 | – | – | 1188.6
[2], 323.15 K, x1 = 0.9453 | – | 842.1 | –
[3], 303.15 K, x1 = 0.0529 | 0.0559 | – | –
[3], 303.15 K, x1 = 0.109 | 0.102 | – | –
[3], 303.15 K, x1 = 0.2159 | 0.162 | – | –
[3], 303.15 K, x1 = 0.3175 | 0.192 | – | –
[3], 303.15 K, x1 = 0.4299 | 0.198 | – | –
[3], 303.15 K, x1 = 0.5331 | 0.201 | – | –
[3], 303.15 K, x1 = 0.6229 | 0.194 | – | –
[3], 303.15 K, x1 = 0.7198 | 0.175 | – | –
[3], 303.15 K, x1 = 0.8249 | 0.15 | – | –
[3], 303.15 K, x1 = 0.9096 | 0.114 | – | –
[3], 303.15 K, x1 = 0.9686 | 0.0566 | – | –
[3], 313.15 K, x1 = 0.0529 | 0.0538 | – | –
[3], 313.15 K, x1 = 0.109 | 0.104 | – | –
[3], 313.15 K, x1 = 0.2159 | 0.179 | – | –
[3], 313.15 K, x1 = 0.3175 | 0.217 | – | –
[3], 313.15 K, x1 = 0.4299 | 0.229 | – | –
[3], 313.15 K, x1 = 0.5331 | 0.238 | – | –
[3], 313.15 K, x1 = 0.6229 | 0.235 | – | –
[3], 313.15 K, x1 = 0.7198 | 0.22 | – | –
[3], 313.15 K, x1 = 0.8249 | 0.184 | – | –
[3], 313.15 K, x1 = 0.9096 | 0.139 | – | –
[3], 313.15 K, x1 = 0.9686 | 0.0621 | – | –
[3], 323.15 K, x1 = 0.0529 | 0.102 | – | –
[3], 323.15 K, x1 = 0.109 | 0.141 | – | –
[3], 323.15 K, x1 = 0.2159 | 0.201 | – | –
[3], 323.15 K, x1 = 0.3175 | 0.236 | – | –
[3], 323.15 K, x1 = 0.4299 | 0.251 | – | –
[3], 323.15 K, x1 = 0.5331 | 0.263 | – | –
[3], 323.15 K, x1 = 0.6229 | 0.262 | – | –
[3], 323.15 K, x1 = 0.7198 | 0.248 | – | –
[3], 323.15 K, x1 = 0.8249 | 0.199 | – | –
[3], 323.15 K, x1 = 0.9096 | 0.147 | – | –
[3], 323.15 K, x1 = 0.9686 | 0.0528 | – | –
